The numbers were not newly measured in patent US20080104001A1, “ALGORITHM FOR ESTIMATION OF BINDING EQULIBRIA IN INCLUSION COMPLEXATION, HOST COMPOUNDS IDENTIFIED THEREBY AND COMPOSITIONS OF HOST COMPOUND AND PHARMACEUTICAL” (priority 2006, published 2008), which cites them from elsewhere.

SMILES strings stand for the structures.

For the first data set the following is noted: cross-validation set; literature values.
Take `Ic1ccc(I)cc1` [1,4 diiodobenzene]: the “Log K(1:1) Measured” value is reported as 3.18.
For the molecule `O=C(O)C12CCC(CC1)C2` [1-bicyclo[2.2.1]heptanecarboxylic acid], the “Log K(1:1) Measured” value is on record as 4.18.
`O=C(O)c1cccc(O)c1` [3-hydroxybenzoic acid]: the “Log K(1:1) Measured” value is given as 2.46.
On to `Nc1ccc(C(=O)O)cc1` [4-aminobenzoic acid], for which the “Log K(1:1) Measured” value is 2.70.
On to `NC(=O)N1c2ccccc2C=Cc2ccccc21` [Carbamazepine], for which the “Log K(1:1) Measured” value is listed as 2.83.
Regarding `CN[C@@H](C)[C@H](O)c1ccccc1` [Ephedrine], the “Log K(1:1) Measured” value is on record as 2.25.
With `Nc1ccc(-c2ccc(N)cc2)cc1` [benzidine], the “Log K(1:1) Measured” value was 3.36.
On to `CN1C(=O)CC(=O)N(c2ccccc2)c2cc(Cl)ccc21` [clobazam], for which the “Log K(1:1) Measured” value is on record as 1.73.
On to `O=C1CN=C(c2ccccc2Cl)c2cc([N+](=O)[O-])ccc2N1` [clonazepam], for which the “Log K(1:1) Measured” value is 1.9.
On to `OC1CCC1` [cyclobutanol], for which the “Log K(1:1) Measured” value is on record as 1.18.
For the molecule `COc1ccc2c(c1)c(CC(=O)O)c(C)n2C(=O)c1ccc(Cl)cc1` [indomethacin], the “Log K(1:1) Measured” value is 2.72.
In the case of `O=C(O)c1ccc(O)cc1` [p-hydroxybenzoic-acid], the “Log K(1:1) Measured” value was 3.03.

The data set is the same for the next values; noted with them: training set; published stability constants (Connors, 1995).
As to `Cc1cccc(C)c1C` [1,2,3-trimethylbenzene], the “Log K(1:1)” value was 2.26.
Take `Cc1ccc(C)c(C)c1` [1,2,4-trimethylbenzene]: the “Log K(1:1)” value is 2.94.
Consider `Oc1ccccc1O` [1,2-benzenediol], for which the “Log K(1:1)” value was 2.04.
As for `Oc1cccc(O)c1` [1,3-benzenediol], the “Log K(1:1)” value is 2.04.
Turning to `Oc1ccc(O)cc1` [1,4-benzenediol], the “Log K(1:1)” value was 2.09.
Regarding `Brc1ccc(Br)cc1` [1,4-dibromobenzene], the “Log K(1:1)” value is given as 2.97.
With `Clc1ccc(Cl)cc1` [1,4-dichlorobenzene], the “Log K(1:1)” value was 2.51.
As for `Fc1ccc(F)cc1` [1,4-difluorobenzene], the “Log K(1:1)” value was 1.6.
For `Cc1ccc(C)c2ccccc12` [1,4-dimethylnaphthalene], the “Log K(1:1)” value is on record as 2.54.
Turning to `Cc1cccc2c(C)cccc12` [1,5-dimethylnaphthalene], the “Log K(1:1)” value is on record as 2.3.
`O=C(O)C12CC3CC(CC(C3)C1)C2` [1-adamantanecarboxylic-acid]: the “Log K(1:1)” value was 5.81.
With `CC(C)c1ccccc1` [1-methylethylbenzene], the “Log K(1:1)” value is listed as 3.08.
Consider `Cc1cccc2ccccc12` [1-methylnaphthalene], for which the “Log K(1:1)” value is 2.64.
`Oc1cccc2ccccc12` [1-naphthol]: the “Log K(1:1)” value is 2.09.
Regarding `CCCCCCCCO` [1-octanol], the “Log K(1:1)” value is recorded as 3.29.
As to `CCCCCO` [1-pentanol], the “Log K(1:1)” value is 1.97.
On to `Cc1ccc2ccccc2c1` [2-methylnaphthalene], for which the “Log K(1:1)” value was 2.85.
Consider `Cc1ccccc1O` [2-methylphenol], for which the “Log K(1:1)” value was 2.12.
On to `Oc1ccc2ccccc2c1` [2-naphthol], for which the “Log K(1:1)” value is 2.77.
For `CCCCCCC(C)O` (centres unmarked) [2-octanol], the “Log K(1:1)” value was 3.13.
On to `CCCC(C)O` (centres unmarked) [2-pentanol], for which the “Log K(1:1)” value is recorded as 1.65.
Take `CC(C)CCO` [3-methyl-1-butanol]: the “Log K(1:1)” value is on record as 2.21.
As for `Cc1cccc(O)c1` [3-methylphenol], the “Log K(1:1)” value is recorded as 2.34.
Consider `CCC1(CC)C(=O)NC(=S)NC1=O` [5,5-diethyl-2-thiobarbituric acid], for which the “Log K(1:1)” value is reported as 2.47.
As to `CCCCCCCC1(CC)C(=O)NC(=O)NC1=O` [5-ethyl-5-heptylbarbituric acid], the “Log K(1:1)” value is 3.61.
Take `CCCCCC1(CC)C(=O)NC(=O)NC1=O` [5-ethyl-5-pentylbarbituric acid]: the “Log K(1:1)” value was 3.1.
As to `CCCC1(CC)C(=O)NC(=O)NC1=O` [5-ethyl-5-propylbarbituric acid], the “Log K(1:1)” value is 2.19.
For `C1=Cc2cccc3cccc1c23` [Acenaphthylene], the “Log K(1:1)” value was 2.41.
Consider `c1ccc2nc3ccccc3cc2c1` [Acridine], for which the “Log K(1:1)” value is on record as 2.46.
In the case of `Nc1ccccc1` [Aniline], the “Log K(1:1)” value is recorded as 1.89.
As for `COc1ccccc1` [Anisole], the “Log K(1:1)” value was 2.14.
Take `C[C@]12CCC(=O)C=C1CC[C@@H]1[C@@H]2C(=O)C[C@@]2(C)[C@H]1CC[C@]2(O)C(=O)CO` [Cortisone]: the “Log K(1:1)” value was 3.39.
Turning to `CCC1(C2=CCCCC2)C(=O)NC(=O)NC1=O` [Cyclobarbital], the “Log K(1:1)” value is 3.11.
Consider `OC1CCCCC1` [Cyclohexanol], for which the “Log K(1:1)” value is reported as 2.75.
In the case of `C1CCCCCCC1` [Cyclooctane], the “Log K(1:1)” value is listed as 3.23.
In the case of `O=C(O)Cc1ccccc1Nc1c(Cl)cccc1Cl` [Diclofenac], the “Log K(1:1)” value was 2.18.
For `CCCCCCC` [Heptane], the “Log K(1:1)” value is listed as 1.84.
Turning to `CCN(CC)c1ccccc1` [N,N-diethylaniline], the “Log K(1:1)” value is recorded as 2.96.
Regarding `O=C1NC(=O)C(c2ccccc2)(c2ccccc2)N1` [Phenytoin], the “Log K(1:1)” value is on record as 2.93.
For the molecule `C[C@]12C=CC(=O)C=C1CC[C@@H]1[C@@H]2[C@@H](O)C[C@@]2(C)[C@H]1CC[C@]2(O)C(=O)CO` [Prednisolone], the “Log K(1:1)” value is on record as 3.45.
With `CC(=O)[C@H]1CC[C@H]2[C@@H]3CCC4=CC(=O)CC[C@]4(C)[C@H]3CC[C@]12C` [Progesterone], the “Log K(1:1)” value is listed as 4.28.
As to `C=CCC1(C(C)CCC)C(=O)NC(=O)NC1=O` (centres unmarked) [Secobarbital], the “Log K(1:1)” value is recorded as 3.26.
Take `C[C@]12CC[C@H]3[C@@H](CCC4=CC(=O)CC[C@@]43C)[C@@H]1CC[C@@H]2O` [Testosterone]: the “Log K(1:1)” value is recorded as 3.8.
As to `C[C@]12C=CC(=O)C=C1CC[C@H]1[C@@H]3C[C@@H](O)[C@](O)(C(=O)CO)[C@@]3(C)C[C@H](O)[C@@]12F` [Triamcinolone], the “Log K(1:1)” value is reported as 3.37.
On to `c1ccc2cc3ccccc3cc2c1` [anthracene], for which the “Log K(1:1)” value is 3.41.
Regarding `c1ccccc1` [benzene], the “Log K(1:1)” value was 2.17.
As to `c1ccc2c(c1)cc1ccc3cccc4ccc2c1c34` [benzo[a]pyrene], the “Log K(1:1)” value is 3.34.
With `O=C(c1ccccc1)c1ccccc1` [benzophenone], the “Log K(1:1)” value was 3.08.
Regarding `OCc1ccccc1` [benzyl alcohol], the “Log K(1:1)” value is on record as 1.7.
For `CCCCC(=O)O[C@]1(C(=O)CO)[C@@H](C)C[C@H]2[C@@H]3CCC4=CC(=O)C=C[C@]4(C)[C@@]3(F)[C@@H](O)C[C@@]21C` [betamethasone-17-valerate], the “Log K(1:1)” value was 3.32.
For `Brc1ccccc1` [bromobenzene], the “Log K(1:1)” value was 2.49.
As for `CCCCOC(=O)c1ccc(O)cc1` [butylparaben], the “Log K(1:1)” value is on record as 3.32.
On to `Clc1ccccc1` [chlorobenzene], for which the “Log K(1:1)” value is listed as 2.2.
As for `CC(=O)OCC(=O)[C@@]1(O)CC[C@H]2[C@@H]3CCC4=CC(=O)CC[C@]4(C)[C@H]3C(=O)C[C@@]21C` [cortisone acetate], the “Log K(1:1)” value was 3.62.
Regarding `C1CCCCC1` [cyclohexane], the “Log K(1:1)” value is recorded as 2.19.
For `O=C1CCCCC1` [cyclohexanone], the “Log K(1:1)” value is on record as 2.71.
Take `C1CCCC1` [cyclopentane]: the “Log K(1:1)” value is 1.95.
In the case of `c1ccc(Nc2ccccc2)cc1` [diphenylamine], the “Log K(1:1)” value is listed as 3.03.
Regarding `Fc1ccccc1` [fluorobenzene], the “Log K(1:1)” value is recorded as 1.85.
As for `CC(C(=O)O)c1ccc(-c2ccccc2)c(F)c1` (centres unmarked) [flurbiprofen], the “Log K(1:1)” value is reported as 3.71.
Take `CCCCCC(=O)O` [hexanoic acid]: the “Log K(1:1)” value is 2.47.
With `Ic1ccccc1` [iodobenzene], the “Log K(1:1)” value is 2.9.
Take `CCC1(CC)C(=O)NC(=O)N(C)C1=O` [metharbital]: the “Log K(1:1)” value is 2.36.
For the molecule `C1COCCN1` [morpholine], the “Log K(1:1)” value is reported as 1.23.
For the molecule `c1ccc2cc3cc4ccccc4cc3cc2c1` [naphthacene], the “Log K(1:1)” value is 3.53.
Consider `O=C(O)c1ccc(O)cc1` [p-hydroxybenzoic-acid], for which the “Log K(1:1)” value is recorded as 3.03.
Regarding `c1ccc2c(c1)ccc1ccccc12` [phenanthrene], the “Log K(1:1)” value is recorded as 3.18.
With `O=C1OC(c2ccc(O)cc2)(c2ccc(O)cc2)c2ccccc21` [phenolphthalein], the “Log K(1:1)” value was 4.56.
For `CC(=O)OCC(=O)[C@@]1(O)CC[C@H]2[C@@H]3CCC4=CC(=O)C=C[C@]4(C)[C@H]3[C@@H](O)C[C@@]21C` [prednisolone-21-acetate], the “Log K(1:1)” value is given as 3.76.

The same data set, now with this note: validation set; known binding constants.
For the molecule `Oc1ccc(O)cc1` [1,4-benzenediol], the “Log K(1:1)” value was 2.09.
Regarding `CC(C)(C)CO` [2,2-dimethylpropanol], the “Log K(1:1)” value is given as 2.69.
For `Cc1cccc(O)c1` [3-methylphenol], the “Log K(1:1)” value is 2.34.
Turning to `c1cc2c3c(cccc3c1)CC2` [Acenaphthene], the “Log K(1:1)” value is 2.01.
Regarding `CC(=O)Nc1ccc(O)cc1` [Acetaminophen], the “Log K(1:1)” value was 2.03.
Regarding `OC1CCCCCCC1` [Cyclooctanol], the “Log K(1:1)” value is on record as 3.3.
Take `CN[C@@H](C)[C@H](O)c1ccccc1` [Ephedrine]: the “Log K(1:1)” value is reported as 2.25.
Turning to `FF` [Fluorine], the “Log K(1:1)” value is reported as 3.13.
With `C[C@]12CCC(=O)C=C1CC[C@@H]1[C@@H]2[C@@H](O)C[C@@]2(C)[C@H]1CC[C@]2(O)C(=O)CO` [Hydrocortisone], the “Log K(1:1)” value is given as 3.46.
`c1ccc2ccccc2c1` [Naphthalene]: the “Log K(1:1)” value was 2.87.
`CC(=O)Oc1ccccc1C(=O)O` [acetylsalicylic acid]: the “Log K(1:1)” value is 3.23.
On to `O=C(O)C=Cc1ccccc1` [cinnamic acid], for which the “Log K(1:1)” value is reported as 2.57.
`CCCCCCCCCC(=O)O` [decanoic acid]: the “Log K(1:1)” value is 3.97.
`CCOC(=O)c1ccc(N)cc1` [ethyl-p-aminobenzoate]: the “Log K(1:1)” value was 2.69.
`CC(=O)OCC(COC(C)=O)OC(C)=O` [glyceryl triacetate]: the “Log K(1:1)” value was 1.15.
With `CC(=O)OCC(=O)[C@@]1(O)CC[C@H]2[C@@H]3CCC4=CC(=O)CC[C@]4(C)[C@H]3[C@@H](O)C[C@@]21C` [hydrocortisone-21-acetate], the “Log K(1:1)” value is on record as 3.51.
For `Cc1ccc(C(=O)O)cc1` [p-toluic acid], the “Log K(1:1)” value is 3.23.
